The record followed here is patent US20100105864A1, “PROPHYLACTIC OR THERAPEUTIC AGENT FOR DIARRHEA” (priority 2007, published 2010).

Marks after values point to notes of the source that are not given here.

The experiment concerns Balb/c mice. Briefly: Anticancer agent (5-FU)-induced diarrhea model. The format is in vivo. The method, then:
To each of Balb/c mice, an anticancer agent was administered to induce diarrhea, and γ-Glu-Val-Gly (hereinafter, referred to as “γEVG”) was studied for its inhibitory effect on diarrhea. To each of 6-week-old Balb/c mice fed with a low protein nutrient diet (4% casein diet) for 1 week, 5-FU (1 mg/animal/day) was intraperitoneally administered for consecutive 3 days. The diarrhea developed around Day 5 after the third administration of the anticancer agent, and the diarrhea appeared in all cases on Day 7. The presence or absence of diarrhea was determined based on the presence or absence of the stool in the tail head area. As the statistical test, a chi-square (χ^2) test for the control group (presence or absence of diarrhea) was employed, and p<0.05 was regarded as significant.
Each administration of 0.01% γEVG was started in free water intake at the same time as the first administration of the anticancer agent, and continued until completion of the experiment.
To each of Balb/c mice, an anticancer agent was administered to induce diarrhea, and a calcium receptor activator (hereinafter, referred to as “CaSR agonist”) was studied for its inhibitory effect on diarrhea. To each of 6-week-old Balb/c mice fed with a low protein nutrient diet (4% casein diet) for 1 week, 5-FU (1 mg/animal/day) was intraperitoneally administered for consecutive 3 days. The diarrhea developed around Day 5 after the third administration of the anticancer agent, and the diarrhea appeared in all cases on Day 7. The presence or absence of diarrhea was determined based on the presence or absence of the stool in the tail head area. As the statistical test, a chi-square (χ^2) test for the control group (presence or absence of diarrhea) was employed, and p<0.05 was regarded as significant.
The administration of the CaSR agonist was started in free water intake at the same time as the administration of the low protein nutrient diet, and continued until completion of the experiment.

For `N[C@@H](CCC(=O)N[C@@H](CS)C(=O)NCC(=O)O)C(=O)O` [γ-Glu-Cys-Gly], the “mice that did not exhibit the diarrhea symptom” value (0.5% administration group, free water intake from start of low protein diet, control all 9/9 with diarrhea) is given as 2 out of 5. In addition, the “Ratio of individuals that developed diarrhea” value (0.5% in free water intake from start of low protein diet, control 9/9, p < 0.05 chi-square) is listed as 3/5*.
